# From patent US8551984B2, “Aminopyrimidines as SYK inhibitors” (Merck Sharp & Dohme Corp., priority 2009, dated 2013)
# pIC50: −log10 of the molar value.
# Biological target: recombinant human SYK (GST-hSYK fusion protein) (Homo sapiens, UniProt P43405)
# Assay: biochemical
# [1] = rhSYK Activity (IC50), recombinant human GST-SYK 5 pM, ATP 25 μM, biotinylated substrate peptide 250 nM, HTRF, 10-dose titration
# Text: Homogeneous Time-Resolved Fluorescence (HTRF) Assay for the Recombinant Human SYK Enzyme:
smiles,measurement,setting,value
Cc1cc(Nc2nccc(C(F)(F)F)n2)cc(-c2cnc(C(C)(C)c3nnc(C)o3)s2)c1 [Example 85A-4],pIC50,[1],> 7.00
CCN(CC)CCC(C)(O)c1ncc(-c2cccc(Nc3nccc(C(F)(F)F)n3)c2)s1 (centres unmarked) [Example 21-8],pIC50,"rhSYK Activity, Table 21",6.00 to 7.00
Cc1cc(Nc2nccc(C(F)(F)F)n2)cc(-c2cnc(C3(O)CCN(C(=O)C4CC(O)C4)CC3)s2)c1 (centres unmarked) [Example 54A-33],pIC50,"RHSYK Activity, Table 54A",> 7.00
Cc1cc(Nc2nccc(OC3CCNCC3)n2)cc(-c2cnc(C(C)(O)C(F)(F)F)s2)c1 (centres unmarked) [Example 94B-6],pIC50,[1],> 7.00
COC/C=C/c1ccnc(Nc2cc(C)cc(-c3cnc(C4(O)CCC(C(=O)O)CC4)s3)c2)n1 (centres unmarked) [Example 104-2],pIC50,[1],> 7.00
"Cc1cc(Nc2nccc(C(F)(F)F)n2)cc(-c2cnc(CO)s2)c1 [Example 89, [5-(3-methyl-5-{[4-(trifluoromethyl)pyrimidin-2-yl]amino}phenyl)-1,3-thiazol-2-yl]methanol]",pIC50,[1],> 7.00
"COCCCc1ccnc(Nc2cc(C)cc(-c3cnc(C4(O)CCC(C(=O)OC(C)(C)C)CC4)s3)c2)n1 (centres unmarked) [Example 122, tert-butyl 4-hydroxy-4-[5-(3-{[4-(3-methoxypropyl)pyrimidin-2-yl]amino}-5-methylphenyl)-1,3-thiazol-2-yl]cyclohexanecarboxylate]",pIC50,[1],6.00 to 7.00
"Cc1cc(Nc2nccc(C(F)(F)F)n2)cc(-c2cnc(C3(O)CCCN(C(=O)c4cnnn4C)CC3)s2)c1 (single isomer, unassigned) [Example 54D-50]",pIC50,"rhSYK Activity, Table 54D",> 7.00
CC(O)c1ncc(-c2cc(Nc3nccc(C(F)(F)F)n3)cc(N3CCOCC3)c2)s1 (centres unmarked) [24-1],pIC50,"rhSYK Activity, Table 24",> 7.00
Cc1cc(Nc2nccc(C3CC3)n2)cc(-c2cnc([C@]3(O)CC[C@@H](C(=O)O)[C@@H](C)C3)s2)c1 [Example 113A-20],pIC50,"rhSYK Activity, Table 113A",> 7.00
Cc1cc(Nc2nccc(OCCN3CCCC3=O)n2)cc(-c2cnc(C3(O)CCC3)s2)c1 [Example 108A-30],pIC50,"rhSYK Activity, Table 108A",> 7.00
Cc1cc(Nc2nccc(C(F)(F)F)n2)cc(-c2cnc(C3(O)CCN(C(=O)C4(O)CCC4)C3)s2)c1 (centres unmarked) [54B-30],pIC50,"rhSYK Activity, Table 54B",> 7.00
Cc1cc(Nc2nccc(C(F)(F)F)n2)cc(-c2cnc(CC(C)(C)C(N)=O)s2)c1 [Example 79-10],pIC50,[1],> 7.00
NC(=O)NC1(c2ncc(-c3cc(F)cc(Nc4ncc(F)c(C5CC5)n4)c3)s2)CCC1 [Example 64-7],pIC50,"rhSYK Activity, Table 64, first part",> 7.00
Cc1cc(Nc2nccc(C(F)(F)F)n2)cc(-c2cnc(C(C)(C)C(=O)N3CCOCC3)s2)c1 [Example 85A-3],pIC50,[1],> 7.00
Cc1cc(Nc2nccc(C(F)(F)F)n2)cc(-c2cnc(C3(C(=O)N(C)C)CC3)s2)c1 [Example 85B-1],pIC50,[1],> 7.00
Cc1cc(Nc2nccc(OCCNC3CCN(C)CC3)n2)cc(-c2cnc(C3(O)CCC3)s2)c1 [Example 108A-14],pIC50,"rhSYK Activity, Table 108A",6.00 to 7.00
Cc1cc(Nc2nccc(OCc3ccnn3C)n2)cc(-c2cnc(C3(O)CCC3)s2)c1 [Example 108A-16],pIC50,"rhSYK Activity, Table 108A",> 7.00
CNC(=O)C1(c2ncc(-c3cc(C)cc(Nc4nccc(C(F)(F)F)n4)c3)s2)CC1 [Example 85B-2],pIC50,[1],> 7.00
Cc1cc(Nc2nccc(C(F)(F)F)n2)cc(-c2cnc([C@]3(O)CC[C@@H](NC(=O)c4ncc[nH]4)CC3)s2)c1 [Example 54E-4],pIC50,"rhSYK Activity, Table 54E",> 7.00
Cc1cc(Nc2nccc(C(F)(F)F)n2)cc(-c2cnc(C(C)(C)C(N)=O)s2)c1 [Example 85A-1],pIC50,[1],> 7.00
NC(=O)c1ncc(-c2cccc(Nc3nccc(C(F)(F)F)n3)c2)s1 [Example 87A-38],pIC50,[1],> 7.00
Cc1cc(Nc2nccc(OCCn3ccnn3)n2)cc(-c2cnc(C3(O)CCC3)s2)c1 [Example 108A-13],pIC50,"rhSYK Activity, Table 108A",> 7.00
Cc1cc(Nc2nccc(C(F)(F)F)n2)cc(-c2cnc(C3=CCNC(=O)CC3)s2)c1 [Example 36B-2],pIC50,"rhSYK Activity, Table 36B",> 7.00
Cc1cc(Nc2nccc(C(F)(F)F)n2)cc(-c2cnc(C(=O)N3CCN(C)CC3)s2)c1 [Example 87B-3],pIC50,[1],6.00 to 7.00
"Cc1cc(Nc2nccc(C(C)(O)C3CC3)n2)cc(-c2cnc(C3(O)CCC(C(=O)O)C(C)(C)C3)s2)c1 (single isomer, unassigned) [Example 100A-25]",pIC50,[1],> 7.00
"Cc1cc(Nc2nccc(C(F)(F)F)n2)cc(-c2cnc(C(C)(O)CCC(C)(C)C(=O)O)s2)c1 (single isomer, unassigned) [Example 33D-3]",pIC50,"rhSYK Activity, Table 33D",> 7.00
Cc1cc(Nc2nccc(C(F)(F)F)n2)cc(-c2cnc(C3(O)CCC(C(=O)O)CC3C)s2)c1 (centres unmarked) [Example 113A-88],pIC50,"rhSYK Activity, Table 113A",> 7.00
CCOC(=O)C1CC(C)C(O)(c2ncc(-c3cc(C)cc(Nc4nccc(C)n4)c3)s2)C(C)C1 (centres unmarked) [Example 113B-29],pIC50,"rhSYK Activity, Table 113B",> 7.00
Cc1cc(Nc2ncc(F)c(C3CC3)n2)cc(-c2cnc([C@]3(O)CC[C@@H](O)CC3)s2)c1 [8A-4],pIC50,"rhSYK Activity, Table 8A",> 7.00
Cc1cc(Nc2nccc(OCCc3nnn[nH]3)n2)cc(-c2cnc(C3(O)CCC3)s2)c1 [Example 108A-21],pIC50,"rhSYK Activity, Table 108A",> 7.00
CC(=O)N1CCN(C(=O)c2ncc(-c3cc(C)cc(Nc4nccc(C(F)(F)F)n4)c3)s2)CC1 [Example 87B-7],pIC50,[1],6.00 to 7.00
Nc1cc(Nc2nccc(OC3CCOCC3)n2)cc(-c2cnc(C3(O)CCC3)s2)c1 [Example 109-9],pIC50,"rhSYK Activity, Table 109",> 7.00
"Cc1cc(Nc2nccc(C(F)(F)F)n2)cc(-c2cnc(C3(O)CCCN(C(=O)c4n[nH]c(C(F)(F)F)n4)CC3)s2)c1 (single isomer, unassigned) [Example 54D-109]",pIC50,"rhSYK Activity, Table 54D",> 7.00
CC(=O)N1CCN(Cc2ncc(-c3cc(C)cc(Nc4nccc(C(F)(F)F)n4)c3)s2)CC1 [Example 88B-6],pIC50,[1],> 7.00
Cc1cc(Nc2nccc(C(F)(F)F)n2)cc(-c2cnc(C3(O)CCCN(C(=O)C(C)O)CC3)s2)c1 (centres unmarked) [Example 54D-14],pIC50,"rhSYK Activity, Table 54D",> 7.00
Cc1cc(Nc2nccc(C(F)(F)F)n2)cc(-c2cnc(C3(O)CCCC(C(=O)O)C(C)(C)C3)s2)c1 (centres unmarked) [Example 33B-11],pIC50,"rhSYK Activity, Table 33B",> 7.00
COCCOc1ccnc(Nc2cc(C)cc(-c3cnc(C4(O)CCC4)s3)c2)n1 [Example 94A-14],pIC50,[1],> 7.00
"Cc1cc(Nc2nccc(C(F)(F)F)n2)cc(-c2cnc(C(=O)NC[C@@H](O)CO)s2)c1 [Example 87, N-[(2R)-2,3-dihydroxypropyl]-5-(3-methyl-5-{[4-(trifluoromethyl)pyrimidin-2-yl]amino}-phenyl)-1,3-thiazole-2-carboxamide]",pIC50,[1],> 7.00
Cc1cc(Nc2nccc(C(F)(F)F)n2)cc(-c2cnc(C(N)=O)s2)c1 [Example 87A-2],pIC50,[1],6.00 to 7.00
Cc1cc(Nc2nccc(C(F)(F)F)n2)cc(-c2cnc([C@]3(O)CC[C@](C)(C(=O)O)CC3)s2)c1 [Example 33A-12],pIC50,"rhSYK Activity, Table 33-A",> 7.00
Cc1cc(Nc2nccc(C(F)(F)F)n2)cc(-c2cnc(C(C)(O)c3ccc(OC(C)C(=O)O)cc3)s2)c1 (centres unmarked) [Example 33D-13],pIC50,"rhSYK Activity, Table 33D",> 7.00
"Cc1cc(Nc2nccc(C(F)(F)F)n2)cc(-c2cnc(C3CCC(C(N)=O)C(C)(C)C3)s2)c1 (single isomer, unassigned) [154(a), 2,2-Dim ethyl-4-[5-(3-methyl-5-{[4-(trifluoromethyl)pyrimidin-2-yl]amino}phenyl)-1,3-thiazol-2-yl]cyclohexanecarboxamide]",pIC50,[1],> 7.00
Cc1cc(Nc2nccc(C(F)(F)F)n2)cc(-c2cnc(C(C)(C)C(=O)N(C)C)s2)c1 [Example 85A-2],pIC50,[1],> 7.00
Cc1cc(Nc2nccc(C(F)(F)F)n2)cc(-c2cnc([C@]3(O)CC[C@H](C(=O)O)CC3)s2)c1 [Example 33A-8],pIC50,"rhSYK Activity, Table 33-A",> 7.00
Cc1cc(Nc2nccc(C(F)(F)F)n2)cc(-c2cnc(CNCCN3CCNC(=O)C3)s2)c1 [Example 88A-30],pIC50,[1],> 7.00
Cc1cc(Nc2nccc(OCCOc3cccc(O)c3)n2)cc(-c2cnc(C3(O)CCC3)s2)c1 [Example 108A-28],pIC50,"rhSYK Activity, Table 108A",6.00 to 7.00
Nc1cc(Nc2nccc(OC3CCNCC3)n2)cc(-c2cnc(C3(O)CCC3)s2)c1 [Example 109-12],pIC50,"rhSYK Activity, Table 109",> 7.00
Cc1cc(Nc2nccc(C(F)(F)F)n2)cc(-c2cnc(C3(O)CCCN(C(=O)Cn4cnnn4)CC3)s2)c1 (centres unmarked) [Example 54D-56],pIC50,"rhSYK Activity, Table 54D",> 7.00
Cc1cc(Nc2nccc(C(F)(F)F)n2)cc(-c2cnc(CNC3(C(=O)O)CC3)s2)c1 [Example 88A-21],pIC50,[1],> 7.00
CC1(C)CC(O)(c2ncc(-c3cc(Nc4nccc(C(F)(F)F)n4)cc(C(F)F)c3)s2)CCC1C(=O)O (centres unmarked) [Example 33A-56],pIC50,"rhSYK Activity, Table 33-A",> 7.00
Cc1cc(Nc2nccc(C(C)C)n2)cc(-c2cnc(C(C)(C)S(N)(=O)=O)s2)c1 [Example 70-2],pIC50,"rhSYK Activity, Table 70",> 7.00
Cc1cc(Nc2nccc(C(=O)O)n2)cc(-c2cnc([C@@]3(O)CC[C@H](C(=O)O)C(C)(C)C3)s2)c1 [116A-24],pIC50,"rhSYK Activity, Table 116A",> 7.00
Cc1cc(Nc2nccc(C(F)(F)F)n2)cc(-c2cnc(CNC3CCCCNC3=O)s2)c1 (centres unmarked) [Example 88A-29],pIC50,[1],> 7.00
CCOC(=O)C1CCC(O)(c2ncc(-c3cc(C)cc(Nc4nccc(C(F)(F)F)n4)c3)s2)C(C)C1 (centres unmarked) [Example 113A-89],pIC50,"rhSYK Activity, Table 113A",> 7.00
Cc1cc(Nc2nccc(C(F)(F)F)n2)cc(-c2cnc(C3(O)CCCN(C(=O)C(O)C(C)(C)O)CC3)s2)c1 (centres unmarked) [Example 54D-77],pIC50,"rhSYK Activity, Table 54D",> 7.00
Cc1cc(Nc2nccc(C(F)(F)F)n2)cc(-c2cnc(C3(O)CCN(C(=O)Cc4cccnc4)CC3)s2)c1 [Example 54A-45],pIC50,"RHSYK Activity, Table 54A",> 7.00
"Cc1cc(Nc2nccc(C(F)(F)F)n2)cc(-c2cnc(C3(O)CCNC(=O)CC3)s2)c1Br (single isomer, unassigned) [Example 111-1]",pIC50,[1],6.00 to 7.00
CCNC(=O)NCc1ncc(-c2cc(C)cc(Nc3nccc(C(F)(F)F)n3)c2)s1 [Example 88A-62],pIC50,[1],> 7.00
Cc1cc(Nc2nccc(C(C)C)n2)cc(-c2cnc([C@@]3(O)CC[C@H](C(=O)O)[C@H](C)C3)s2)c1 [Example 113A-25],pIC50,"rhSYK Activity, Table 113A",> 7.00
Cc1cc(Nc2nccc(C)n2)cc(-c2cnc([C@@]3(O)CC[C@H](C(=O)O)C(C)(C)C3)s2)c1,pIC50,"Syk IC50, HTRF, recombinant human GST-SYK",9.00
Cc1cc(Nc2nccc(C(F)(F)F)n2)cc(-c2cnc(C3(O)CC(C)C(C(=O)OC(C)C)C(C)C3)s2)c1 (centres unmarked) [Example 113B-27],pIC50,"rhSYK Activity, Table 113B",6.00 to 7.00
